Reference: the NIST ThermoML archive (doi:10.1021/je0501843)
Values joined by “and” are separate entries in the source; they are usually repeats but may differ in a detail not shown here. Identical values can stand only once.

Experiment: molar heat capacity at constant volume
Settings: Fluid (supercritical or subcritical phases), Vacuum adiabatic calorimetry

FC(F)C(F)(F)F [pentafluoroethane]
Settings	molar heat capacity at constant volume
391 K, Mass density=403.1 kg/m3	115.12 J/K/mol
391 K, Mass density=502.4 kg/m3	111.21 J/K/mol
391 K, Mass density=584.7 kg/m3	113.95 J/K/mol
391 K, Mass density=687.1 kg/m3	114.69 J/K/mol
391 K, Mass density=772 kg/m3	114.4 J/K/mol
391 K, Mass density=880.2 kg/m3	113.13 J/K/mol
391 K, Mass density=971.8 kg/m3	113.73 J/K/mol and 111.12 J/K/mol
392 K, Mass density=403.1 kg/m3	113.94 J/K/mol
392 K, Mass density=502.4 kg/m3	111.32 J/K/mol
392 K, Mass density=584.7 kg/m3	113.44 J/K/mol
392 K, Mass density=687.1 kg/m3	113.17 J/K/mol
392 K, Mass density=772 kg/m3	112.45 J/K/mol
392 K, Mass density=880.1 kg/m3	111.39 J/K/mol
392 K, Mass density=971.7 kg/m3	108.99 J/K/mol and 110.55 J/K/mol
393 K, Mass density=403.1 kg/m3	113.84 J/K/mol
393 K, Mass density=502.3 kg/m3	114.93 J/K/mol
393 K, Mass density=584.7 kg/m3	112.26 J/K/mol
393 K, Mass density=687 kg/m3	114.98 J/K/mol
393 K, Mass density=771.9 kg/m3	113.77 J/K/mol
393 K, Mass density=880 kg/m3	112.82 J/K/mol
393 K, Mass density=971.6 kg/m3	109.6 J/K/mol and 110.84 J/K/mol
394 K, Mass density=403.1 kg/m3	113.19 J/K/mol
394 K, Mass density=502.3 kg/m3	113.53 J/K/mol
394 K, Mass density=584.6 kg/m3	113.56 J/K/mol
394 K, Mass density=687 kg/m3	116.48 J/K/mol
394 K, Mass density=771.9 kg/m3	114.28 J/K/mol
394 K, Mass density=880 kg/m3	113.31 J/K/mol
394 K, Mass density=971.6 kg/m3	113.46 J/K/mol and 112.41 J/K/mol
395 K, Mass density=403 kg/m3	112.66 J/K/mol
395 K, Mass density=502.3 kg/m3	112.95 J/K/mol
395 K, Mass density=584.6 kg/m3	114.13 J/K/mol
395 K, Mass density=687 kg/m3	114.63 J/K/mol
395 K, Mass density=771.8 kg/m3	113.37 J/K/mol
395 K, Mass density=879.9 kg/m3	112.11 J/K/mol
395 K, Mass density=971.5 kg/m3	112.76 J/K/mol and 111.6 J/K/mol
396 K, Mass density=403 kg/m3	114.19 J/K/mol
396 K, Mass density=502.3 kg/m3	115.6 J/K/mol
396 K, Mass density=584.6 kg/m3	113.53 J/K/mol
396 K, Mass density=686.9 kg/m3	113.17 J/K/mol
396 K, Mass density=771.8 kg/m3	113.35 J/K/mol
396 K, Mass density=879.9 kg/m3	112.93 J/K/mol
396 K, Mass density=971.4 kg/m3	112.77 J/K/mol and 110.2 J/K/mol
397 K, Mass density=403 kg/m3	115.11 J/K/mol
397 K, Mass density=502.2 kg/m3	113.37 J/K/mol
397 K, Mass density=584.5 kg/m3	112.42 J/K/mol
397 K, Mass density=686.9 kg/m3	113.72 J/K/mol
397 K, Mass density=771.7 kg/m3	113.23 J/K/mol
397 K, Mass density=879.8 kg/m3	113.97 J/K/mol
397 K, Mass density=971.3 kg/m3	112.64 J/K/mol and 111.54 J/K/mol
398 K, Mass density=403 kg/m3	115.94 J/K/mol
398 K, Mass density=502.2 kg/m3	111.91 J/K/mol
398 K, Mass density=584.5 kg/m3	113.66 J/K/mol
398 K, Mass density=686.8 kg/m3	116.24 J/K/mol
398 K, Mass density=771.7 kg/m3	114.52 J/K/mol
398 K, Mass density=879.7 kg/m3	113.6 J/K/mol
398 K, Mass density=971.3 kg/m3	113.46 J/K/mol and 112.92 J/K/mol
399 K, Mass density=502.2 kg/m3	114.43 J/K/mol
399 K, Mass density=584.5 kg/m3	115.44 J/K/mol
399 K, Mass density=686.8 kg/m3	115.5 J/K/mol
399 K, Mass density=771.6 kg/m3	114.85 J/K/mol
399 K, Mass density=879.7 kg/m3	112.05 J/K/mol
399 K, Mass density=971.2 kg/m3	112.08 J/K/mol
